Measured values: patent publication US9550796B2, “Pyrrolopyrrolone derivatives and their use as BET inhibitors” (NOVARTIS AG, priority 2013, dated 2017)

Legend:
MV-4-11 = experiment: Cell growth inhibition assay (CellTiter-Glo), MV-4-11; type: cell-based, human; conditions: MV-4-11 cells, 4 days; for GI50: Homo sapiens, MV4-11, 96 h, half-maximal growth inhibition; for MV-4-11 TGI: total growth inhibition
How it was run: (§1)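 ATP content was quantified with CellTiter-Glo after 4-day compound treatment (top 10 μM, 3-fold steps) at 37 °C. Readings were background- and day-0-corrected, scaled so vehicle equals 100% and medium equals −100%. Four-parameter fits gave half-maximal (IC50) and total growth inhibition concentrations.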

BRD4 = BRD4 (Homo sapiens (Human), UniProt O60885); experiment: TR-FRET in-vitro binding assay for BRD4; conditions: 45 nM His-Brd4(44-477), acetyl-histone H4 (AcK 5, 8, 12, 16) peptide
How it was run: (§2)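 Binding is detected by TR-FRET following incubation for 35 minutes at 30° C.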

CREBBP = CREBBP (Homo sapiens (Human), UniProt Q92793); experiment: AlphaScreen in-vitro binding assay for CREBBP; conditions: 324 nM His-CREBBP (1081-1197), acetyl-histone H4 (AcK 5, 8, 12) peptide
How it was run: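 IC50 values were derived by non-linear regression of percent inhibition across 8 compound concentrations. Protein was His-tagged CREBBP bromodomain (1081-1197), peptide acetyl-histone H4 (AcK 5, 8, 12), in HEPES pH 7.5 buffer. Read-out was AlphaScreen with Ni-chelate acceptor and streptavidin donor beads, 35 min at 30° C then 60 min at RT.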

K-562 = experiment: Cell growth inhibition assay (CellTiter-Glo), K-562; type: cell-based, human; conditions: K-562 cells, 4 days; for GI50: Homo sapiens, K562, 96 h, half-maximal growth inhibition; for K-562 TGI: total growth inhibition
How it was run: as §1

BRD3 = BRD3 (Homo sapiens (Human), UniProt Q15059); experiment: TR-FRET in-vitro binding assay for BRD3; conditions: 45 nM His-Brd3(20-477), acetyl-histone H4 (AcK 5, 8, 12, 16) peptide
How it was run: as §2

THP-1 = experiment: Cell growth inhibition assay (CellTiter-Glo), THP-1; type: cell-based, human; conditions: THP-1 cells, 4 days; for GI50: Homo sapiens, 96 h, half-maximal growth inhibition; for THP-1 TGI: total growth inhibition
How it was run: as §1

BRD2 = BRD2 (Homo sapiens (Human), UniProt P25440); experiment: TR-FRET in-vitro binding assay for BRD2; conditions: 45 nM His-Brd2(60-472), acetyl-histone H4 (AcK 5, 8, 12, 16) peptide
How it was run: as §2

Sequence of BRD2 (P25440 60-472): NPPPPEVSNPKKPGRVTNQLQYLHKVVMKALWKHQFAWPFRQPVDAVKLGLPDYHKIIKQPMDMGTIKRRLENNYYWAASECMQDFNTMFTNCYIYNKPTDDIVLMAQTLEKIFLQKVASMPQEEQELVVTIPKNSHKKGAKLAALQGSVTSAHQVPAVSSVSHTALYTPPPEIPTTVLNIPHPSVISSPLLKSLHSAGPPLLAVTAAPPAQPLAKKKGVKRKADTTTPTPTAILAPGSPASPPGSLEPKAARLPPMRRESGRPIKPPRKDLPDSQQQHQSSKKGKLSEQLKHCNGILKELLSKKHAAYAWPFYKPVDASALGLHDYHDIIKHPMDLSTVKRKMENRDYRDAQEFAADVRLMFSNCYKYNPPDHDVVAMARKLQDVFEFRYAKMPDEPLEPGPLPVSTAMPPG
Sequence of BRD3 (Q15059 20-477): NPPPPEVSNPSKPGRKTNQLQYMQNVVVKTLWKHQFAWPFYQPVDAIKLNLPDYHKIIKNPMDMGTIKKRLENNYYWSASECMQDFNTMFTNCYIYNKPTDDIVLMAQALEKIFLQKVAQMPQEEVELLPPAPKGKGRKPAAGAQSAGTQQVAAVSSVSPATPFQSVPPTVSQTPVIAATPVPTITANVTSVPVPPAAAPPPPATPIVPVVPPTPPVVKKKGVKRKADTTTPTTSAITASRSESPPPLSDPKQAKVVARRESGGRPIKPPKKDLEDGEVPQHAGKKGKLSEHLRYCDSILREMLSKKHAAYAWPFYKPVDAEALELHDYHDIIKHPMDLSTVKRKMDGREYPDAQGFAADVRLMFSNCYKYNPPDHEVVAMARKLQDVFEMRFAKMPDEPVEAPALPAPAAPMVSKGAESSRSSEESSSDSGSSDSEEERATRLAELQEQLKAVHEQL
Sequence of CREBBP (Q92793 1081-1197): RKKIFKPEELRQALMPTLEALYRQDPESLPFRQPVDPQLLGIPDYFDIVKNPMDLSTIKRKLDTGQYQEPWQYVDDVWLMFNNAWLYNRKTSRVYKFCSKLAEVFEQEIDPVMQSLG

SMILES	GI50 (MV-4-11) [nM]	MV-4-11 TGI (MV-4-11) [nM]	IC50 (BRD4) [nM]	IC50 (CREBBP) [nM]	GI50 (K-562) [nM]	K-562 TGI (K-562) [nM]	IC50 (BRD3) [nM]	GI50 (THP-1) [nM]	THP-1 TGI (THP-1) [nM]	IC50 (BRD2) [nM]
COc1ncccc1-c1cc2c(n1C)C(c1ccc(Cl)cc1)N(c1cc(C)c3nnc(C)n3c1)C2=O (centres unmarked) [Example 30, 6-(4-chlorophenyl)-5-(3,8-dimethyl-[1,2,4]triazolo[4,3-a]pyridin-6-yl)-2-(2-methoxypyridin-3-yl)-1-methyl-5,6-dihydropyrrolo[3,4-b]pyrrol-4(1H)-one]	11.2	21.3	40	1300	57.2	>10000	47	19.8	39.05	50
Cc1cc(N2C(=O)c3cc(C4=CCOCC4)n(C)c3C2c2ccc(Cl)cc2)cn2c(C)nnc12 (centres unmarked) [Example 31, 6-(4-chlorophenyl)-2-(3,6-dihydro-2H-pyran-4-yl)-5-(3,8-dimethyl-[1,2,4]triazolo[4,3-a]pyridin-6-yl)-1-methyl-5,6-dihydropyrrolo[3,4-b]pyrrol-4(1H)-one]	13.3	23.7	36	3100	57.2	>10000	47	30.9	52.5	62
Cc1cn(C)c2c1C(=O)N(c1cc(C)c3nnn(C)c3n1)C2c1ccc(Cl)cc1 (centres unmarked) [Example 32, 6-(4-chlorophenyl)-5-(3,7-dimethyl-3H-[1,2,3]triazolo[4,5-b]pyridin-5-yl)-1,3-dimethyl-5,6-dihydropyrrolo[3,4-b]pyrrol-4(1H)-one]	111	203.5	110	> 37000	430	>10000	100	174	343	160
Cc1cc(N2C(=O)c3c(C4CC4)cn(C)c3C2c2ccc(Cl)cc2)cn(C)c1=O (centres unmarked) [Example 37, 6-(4-chlorophenyl)-3-cyclopropyl-5-(1,5-dimethyl-6-oxo-1,6-dihydropyridin-3-yl)-1-methyl-5,6-dihydropyrrolo[3,4-b]pyrrol-4(1H)-one]	21.3	38.55	37	1900	180	>10000	32	44.9	98.15	38
COc1nccc(-c2cc3c(n2C)C(c2ccc(Cl)cc2)N(c2cc(Cl)c(=O)n(C)c2)C3=O)n1 (centres unmarked) [Example 39, 5-(5-chloro-1-methyl-6-oxo-1,6-dihydropyridin-3-yl)-6-(4-chlorophenyl)-2-(2-methoxypyrimidin-4-yl)-1-methyl-5,6-dihydropyrrolo[3,4-b]pyrrol-4(1H)-one]	78.6	105	305	1200	550	>10000	220	128	238	280
COc1ncc(-c2cc3c(n2C)C(c2ccc(Cl)cc2)N(c2cc(Cl)c(=O)n(C)c2)C3=O)cn1 (centres unmarked) [Example 40, 5-(5-chloro-1-methyl-6-oxo-1,6-dihydropyridin-3-yl)-6-(4-chlorophenyl)-2-(2-methoxypyrimidin-5-yl)-1-methyl-5,6-dihydropyrrolo[3,4-b]pyrrol-4(1H)-one]	83.9	127	78	365	326	>10000	54	91.9	137	72.5
Cn1c(-c2ccn(C)c(=O)c2)cc2c1C(c1ccc(Cl)cc1)N(c1cc(Cl)c(=O)n(C)c1)C2=O (centres unmarked) [Example 41, 5-(5-chloro-1-methyl-6-oxo-1,6-dihydropyridin-3-yl)-6-(4-chlorophenyl)-1-methyl-2-(1-methyl-2-oxo-1,2-dihydropyridin-4-yl)-5,6-dihydropyrrolo[3,4-b]pyrrol-4(1H)-one]	78.7	128	85	535	517	>10000	65.5	167	307	83
Cn1c(-c2cccn(C)c2=O)cc2c1C(c1ccc(Cl)cc1)N(c1cc(Cl)c(=O)n(C)c1)C2=O (centres unmarked) [Example 43, 5-(5-chloro-1-methyl-6-oxo-1,6-dihydropyridin-3-yl)-6-(4-chlorophenyl)-1-methyl-2-(1-methyl-2-oxo-1,2-dihydropyridin-3-yl)-5,6-dihydropyrrolo[3,4-b]pyrrol-4(1H)-one]	183	310	120	690	934	>10000	77	276	492	90
Cn1c(-c2cccc(=O)n2C)cc2c1C(c1ccc(Cl)cc1)N(c1cc(Cl)c(=O)n(C)c1)C2=O (centres unmarked) [Example 44, 5-(5-chloro-1-methyl-6-oxo-1,6-dihydropyridin-3-yl)-6-(4-chlorophenyl)-1-methyl-2-(1-methyl-6-oxo-1,6-dihydropyridin-2-yl)-5,6-dihydropyrrolo[3,4-b]pyrrol-4(1H)-one]	264	391	66	310	2590	>10000	41	1420	2700	54
Cc1cc(N2C(=O)c3cc(-c4ccc(=O)n(C)c4)n(C)c3C2c2ccc(Cl)cc2)cn(C)c1=O (centres unmarked) [Example 46, 6-(4-chlorophenyl)-5-(1,5-dimethyl-6-oxo-1,6-dihydropyridin-3-yl)-1-methyl-2-(1-methyl-6-oxo-1,6-dihydropyridin-3-yl)-5,6-dihydropyrrolo[3,4-b]pyrrol-4(1H)-one]	165	292	14	280	1600	>10000	16	525	1070	19
Cc1cc(N2C(=O)c3cc(-c4cccn(C)c4=O)n(C)c3C2c2ccc(Cl)cc2)cn(C)c1=O (centres unmarked) [Example 47, 6-(4-chlorophenyl)-5-(1,5-dimethyl-6-oxo-1,6-dihydropyridin-3-yl)-1-methyl-2-(1-methyl-2-oxo-1,2-dihydropyridin-3-yl)-5,6-dihydropyrrolo[3,4-b]pyrrol-4(1H)-one]	98.4	156	140	690	698	>10000	82	195	351	110
Cc1cc(N2C(=O)c3cc(-c4ccccn4)n(C)c3C2c2ccc(Cl)cc2)cn(C)c1=O (centres unmarked) [Example 52, 6-(4-chlorophenyl)-5-(1,5-dimethyl-6-oxo-1,6-dihydropyridin-3-yl)-1-methyl-2-(pyridin-2-yl)-5,6-dihydropyrrolo[3,4-b]pyrrol-4(1H)-one]	872	2355	55.3	720	2750	>10000	54	776	2630	67
COc1cccc(-c2cc3c(n2C)C(c2ccc(Cl)cc2)N(c2cc(C)c(=O)n(C)c2)C3=O)n1 (centres unmarked) [Example 59, 6-(4-chlorophenyl)-5-(1,5-dimethyl-6-oxo-1,6-dihydropyridin-3-yl)-2-(6-methoxypyridin-2-yl)-1-methyl-5,6-dihydropyrrolo[3,4-b]pyrrol-4(1H)-one]	74	106	72	940	297	>10000	78	86.3	136	80
Cn1cc(N2C(=O)c3cc(-c4cccc(=O)n4C)n(C4CC4)c3C2c2ccc(Cl)cc2)cc(Cl)c1=O (centres unmarked) [Example 62, 5-(5-chloro-1-methyl-6-oxo-1,6-dihydropyridin-3-yl)-6-(4-chlorophenyl)-1-cyclopropyl-2-(1-methyl-6-oxo-1,6-dihydropyridin-2-yl)-5,6-dihydropyrrolo[3,4-b]pyrrol-4(1H)-one]	226	329	170	270	1030	>10000	130	758	1190	140
